In patent US4448714A, “Antibiotic polypeptide compounds prepared from staphlococcus bacteria” (priority 1979, dated 1984):

Tested on: S. Epidermidis NCIB 11536
Assay: Antibiotic sensitivities of the producer strain (disc)
Format: cell-based
Settings: 5 μg disc; strain characteristics table

With CO[C@@H]1[C@@H](OC(N)=O)[C@@H](O)[C@H](Oc2ccc3c(O)c(NC(=O)c4ccc(O)c(CC=C(C)C)c4)c(=O)oc3c2C)OC1(C)C [novobiocin] the Novobiocin sensitivity was “sensitive”.
